Results as given in patent US20110195147A1, “IRON SOURCE PRODUCT IN THE FORM OF CAPSULES AND PROCESS FOR THEIR PREPARATION” (AB-BIOTICS S.A., priority 2008, published 2011).

System: HELA cell line
Test: Capsule cytotoxicity, EZ4U cell proliferation and cytotoxicity assay
Settings: for % Viability 24 h: 24 h incubation; for % Viability 72 h: 72 h incubation
Description: The test involved incubating cells from the HELA cell line with the substances against which the cytotoxicity was going to be tested, this test being commonly used as a way to check the toxicity. The tested compounds included the capsules, as well as their main constituents separately: the iron salt used in the capsules (ferric saccharate), and sodium alginate. A negative control, which contained HELA growth medium alone, was also prepared, and used as the reference growth.
The test media were prepared under sterile conditions. Capsules prepared as in Example 1 (Capsule 0; batch 2 of Example 3) were sterilised in an autoclave (20 min, 110° C.). Using sterile material, 72 mg of capsules (capsules medium), 17 mg of ferric saccharate (iron salt medium) and 18 mg of sodium alginate (alginate medium) were each dissolved in 50 mL of HELA growth medium. […] 1:1, 1:10 and 1:100 dilutions of each of the test media were prepared by diluting the following amounts of capsules, iron salt or alginate medium with fresh HELA growth medium: • 1:1 20 μL+0 μL fresh HELA medium • 1:10 2 μL+18 μL fresh HELA medium • 1:100 0.2 μL+19.8 μL fresh HELA medium
3500 HeLa cells were cultured in 36 wells of two 96 well plates: 9 control wells and 27 for triplicates of 3 concentrations of 3 products. Medium was added to each well up to 100 μL. The cells were incubated at 37° C. for 24 h. 20 μL of each test media and 80 μL of fresh medium were added to each well. In the controls only 100 μL of fresh medium were added. One of the plates was incubated for 24 h and the other one for 72 h. The viability of the cells was measured after 24 and 72 h of incubation using the EZ4U non-radioactive cell proliferation and cytotoxicity assay (Biomedica Medizinproducte GmbH).
The results were expressed as percentage of growth with respect to the controls, i. e. as the percentage of viability, which is computed as the number of living cells in any of the test solutions (capsules, ferric saccharate or sodium alginate) divided by the number of living cells in the negative control, and expressed as percentage.

Substance	% Viability 24 h (dilution 1:1, relative to negative control)	% Viability 24 h (dilution 1:10)	% Viability 24 h (dilution 1:100)	% Viability 72 h (dilution 1:1)	% Viability 72 h (dilution 1:10)	% Viability 72 h (dilution 1:100)	cytotoxicity (in words)
ferric saccharate [Iron salt]	76.3% ± 9.7	101.7% ± 8.5	95.7% ± 3.2	66.8% ± 23.0	62.0% ± 15.7	68.7% ± 15.3	
sodium alginate							No toxicity was observed
